Assay results reported in ChEMBL document CHEMBL4316596, “Antimicrobial Peptides with High Proteolytic Resistance for Combating Gram-Negative Bacteria” (J Med Chem, 2019).
In brackets after ≈: the same amount, converted by molar mass. Activity calls are given as the source filed them. No cut-off for these calls is given here.

Legend:
Escherichia coli [1] = assay: Antimicrobial activity against Escherichia coli ATCC 25922 after 24 hrs by NCCLS-protocol based assay; format: functional; conditions: ATCC 25922, 24 h
Escherichia coli [2] = assay: Antimicrobial activity against Escherichia coli UB1005 after 24 hrs by NCCLS-protocol based assay; format: functional; conditions: UB1005, 24 h
Escherichia coli [3] = assay: Antimicrobial activity against Escherichia coli 078 after 24 hrs by NCCLS-protocol based assay; format: functional; conditions: Escherichia coli, 078, 24 h
Escherichia coli [4] = assay: Antimicrobial activity against Escherichia coli K88 after 24 hrs by NCCLS-protocol based assay; format: functional; conditions: K88, 24 h
Escherichia coli [5] = assay: Antimicrobial activity against Escherichia coli K99 after 24 hrs by NCCLS-protocol based assay; format: functional; conditions: K99, 24 h
Pseudomonas aeruginosa [6] = assay: Antimicrobial activity against Pseudomonas aeruginosa ATCC 27853 after 24 hrs by NCCLS-protocol based assay; format: functional; conditions: ATCC 27853, 24 h
Pseudomonas aeruginosa [7] = assay: Antimicrobial activity against Pseudomonas aeruginosa PAO1 after 24 hrs by NCCLS-protocol based assay; format: functional; conditions: PAO1, 24 h
Pseudomonas aeruginosa [8] = assay: Antimicrobial activity against Pseudomonas aeruginosa CICC 21630 clinical isolates after 24 hrs by NCCLS-protocol based assay; format: functional; conditions: CICC 21630, 24 h
Pseudomonas aeruginosa [9] = assay: Antimicrobial activity against Pseudomonas aeruginosa CICC 21625 clinical isolates after 24 hrs by NCCLS-protocol based assay; format: functional; conditions: CICC 21625, 24 h
Salmonella typhimurium [10] = assay: Antimicrobial activity against Salmonella typhimurium ATCC 14028 after 24 hrs by NCCLS-protocol based assay; format: functional, Salmonella enterica subsp. enterica serovar Typhimurium; conditions: Salmonella enterica, ATCC 14028, 24 h
[11] = Antimicrobial activity against Salmonella pullorum C7913 after 24 hrs by NCCLS-protocol based assay; format: functional, Salmonella enterica subsp. enterica serovar Pullorum; conditions: Salmonella enterica, C7913, 24 h
Klebsiella pneumoniae [12] = assay: Antimicrobial activity against Klebsiella pneumoniae after 24 hrs by NCCLS-protocol based assay; format: functional
Erythrocyte = assay: Hemolytic activity against human RBC after 1 hr; format: ADME, cell-based
RAW264.7 = assay: Cytotoxicity against mouse RAW264.7 cells assessed as cell death after 18 to 24 hrs by MTT assay; format: cell-based
Escherichia coli [13] = assay: Bactericidal activity against Escherichia coli ATCC 25922 incubated for 4 hrs followed by culture spread on agar plates and cultured overnight; format: functional; conditions: ATCC 25922, 4 h, read-out: MBC>99.9
[14] = Selectivity ratio of IC50 for mouse RAW264.7 cells to geometric mean of the peptide MBC for bacteria
Escherichia coli [15] = assay: Bactericidal activity against Escherichia coli ATCC 25922 incubated for 4 hrs followed by culture spread on agar plates and cultured overnight in presence of KCl; format: functional; conditions: ATCC 25922, 4 h, read-out: MBC>99.9
Escherichia coli [16] = assay: Bactericidal activity against Escherichia coli ATCC 25922 incubated for 4 hrs followed by culture spread on agar plates and cultured overnight in presence of ZnCl2; format: functional; conditions: ATCC 25922, 4 h, read-out: MBC>99.9
Escherichia coli [17] = assay: Bactericidal activity against Escherichia coli ATCC 25922 incubated for 4 hrs followed by culture spread on agar plates and cultured overnight in presence of 25% serum albumin; format: functional; conditions: ATCC 25922, 4 h, read-out: MBC>99.9
Escherichia coli [18] = assay: Bactericidal activity against Escherichia coli ATCC 25922 incubated for 4 hrs followed by culture spread on agar plates and cultured overnight in presence of 12.5% serum albumin; format: functional; conditions: ATCC 25922, 4 h, read-out: MBC>99.9
Escherichia coli [19] = assay: Bactericidal activity against Escherichia coli ATCC 25922 incubated for 4 hrs followed by culture spread on agar plates and cultured overnight in presence of 4 mg/ml trypsin; format: functional; conditions: ATCC 25922, 4 h, read-out: MBC>99.9
Escherichia coli [20] = assay: Bactericidal activity against Escherichia coli ATCC 25922 incubated for 4 hrs followed by culture spread on agar plates and cultured overnight in presence of 0.5 mg/ml trypsin; format: functional; conditions: ATCC 25922, 4 h, read-out: MBC>99.9
Escherichia coli [21] = assay: Bactericidal activity against Escherichia coli ATCC 25922 incubated for 4 hrs followed by culture spread on agar plates and cultured overnight in presence of 0.25 mg/ml trypsin; format: functional; conditions: ATCC 25922, 4 h, read-out: MBC>99.9
Escherichia coli [22] = assay: Bactericidal activity against Escherichia coli ATCC 25922 incubated for 4 hrs followed by culture spread on agar plates and cultured overnight in presence of 0.125 mg/ml trypsin; format: functional; conditions: ATCC 25922, 4 h, read-out: MBC>99.9
Escherichia coli [23] = assay: Bactericidal activity against Escherichia coli ATCC 25922 incubated for 4 hrs followed by culture spread on agar plates and cultured overnight in presence of 4 mg/ml chymotrypsin; format: functional; conditions: ATCC 25922, 4 h, read-out: MBC>99.9
Escherichia coli [24] = assay: Bactericidal activity against Escherichia coli ATCC 25922 incubated for 4 hrs followed by culture spread on agar plates and cultured overnight in presence of 2 mg/ml chymotrypsin; format: functional; conditions: ATCC 25922, 4 h, read-out: MBC>99.9
Escherichia coli [25] = assay: Bactericidal activity against Escherichia coli ATCC 25922 incubated for 4 hrs followed by culture spread on agar plates and cultured overnight in presence of 0.5 mg/ml chymotrypsin; format: functional; conditions: ATCC 25922, 4 h, read-out: MBC>99.9
Escherichia coli [26] = assay: Bactericidal activity against Escherichia coli ATCC 25922 incubated for 4 hrs followed by culture spread on agar plates and cultured overnight in presence of 0.125 mg/ml chymotrypsin; format: functional; conditions: ATCC 25922, 4 h, read-out: MBC>99.9
Escherichia coli [27] = assay: Bactericidal activity against Escherichia coli UB1005 incubated for 4 hrs followed by culture spread on agar plates and cultured overnight; format: functional; conditions: UB1005, 4 h, read-out: MBC>99.9
Escherichia coli [28] = assay: Bactericidal activity against Escherichia coli K88 incubated for 4 hrs followed by culture spread on agar plates and cultured overnight; format: functional; conditions: K88, 4 h, read-out: MBC>99.9
Escherichia coli [29] = assay: Bactericidal activity against Escherichia coli K99 incubated for 4 hrs followed by culture spread on agar plates and cultured overnight; format: functional; conditions: K99, 4 h, read-out: MBC>99.9
Pseudomonas aeruginosa [30] = assay: Bactericidal activity against Pseudomonas aeruginosa CICC 21630 clinical isolates incubated for 4 hrs followed by culture spread on agar plates and cultured overnight; format: functional; conditions: CICC 21630, 4 h, read-out: MBC>99.9
Salmonella typhimurium [31] = assay: Bactericidal activity against Salmonella typhimurium C7731 incubated for 4 hrs followed by culture spread on agar plates and cultured overnight; format: functional, Salmonella enterica subsp. enterica serovar Typhimurium; conditions: Salmonella enterica, C7731, 4 h; read-out: MBC>99.9
[32] = Bactericidal activity against Salmonella pullorum C7913 incubated for 4 hrs followed by culture spread on agar plates and cultured overnight; format: functional, Salmonella enterica subsp. enterica serovar Pullorum; conditions: Salmonella enterica, C7913, 4 h; read-out: MBC>99.9
Acinetobacter baumannii = assay: Bactericidal activity against Acinetobacter baumannii incubated for 4 hrs followed by culture spread on agar plates and cultured overnight; format: functional; conditions: read-out: MBC>99.9
Klebsiella pneumoniae [33] = assay: Bactericidal activity against Klebsiella pneumoniae incubated for 4 hrs followed by culture spread on agar plates and cultured overnight; format: functional; conditions: read-out: MBC>99.9
Escherichia coli [34] = assay: Bactericidal activity against Escherichia coli ATCC 25922 incubated for 4 hrs followed by culture spread on agar plates and cultured overnight in presence of 4 mg/ml pepsin; format: functional, organism-based
[35] = Stability of the compound assessed as pepsin (unknown origin)-mediated compound hydrolysis after 8 hrs by SDS-PAGE analysis; format: ADME; conditions: human

Row | Compound | MIC95 (Escherichia coli [1]) [µM] | MIC95 (Escherichia coli [2]) [µM] | MIC95 (Escherichia coli [3]) [µM] | MIC95 (Escherichia coli [4]) [µM] | MIC95 (Escherichia coli [5]) [µM] | MIC95 (Pseudomonas aeruginosa [6]) [µM] | MIC95 (Pseudomonas aeruginosa [7]) [µM] | MIC95 (Pseudomonas aeruginosa [8]) [µM] | MIC95 (Pseudomonas aeruginosa [9]) [µM] | MIC95 (Salmonella typhimurium [10]) [µM] | MIC95 [11] [µM] | MIC95 (Klebsiella pneumoniae [12]) [µM] | HC10 (Erythrocyte) [µM] | IC50 (RAW264.7) [µM] | MBC (Escherichia coli [13]) [µM] | Ratio [14] | MBC (Escherichia coli [15]) [µM] | MBC (Escherichia coli [16]) [µM] | MBC (Escherichia coli [17]) [µM] | MBC (Escherichia coli [18]) [µM] | also measured
1 | CC[C@H](C)[C@H](NC(=O)CN)C(=O)NCC(=O)N[C@@H](C)C(=O)N[C@H](C(=O)N[C@@H](CC(C)C)C(=O)N[C@@H](CCCCN)C(=O)N[C@H](C(=O)N[C@@H](CC(C)C)C(=O)N[C@H](C(=O)N[C@H](C(=O)NCC(=O)N[C@@H](CC(C)C)C(=O)N1CCC[C@H]1C(=O)N[C@@H](C)C(=O)N[C@@H](CC(C)C)C(=O)N[C@H](C(=O)N[C@@H](CO)C(=O)N[C@@H](Cc1c[nH]c2ccccc12)C(=O)N[C@H](C(=O)N[C@@H](CCCCN)C(=O)N[C@@H](CCCNC(=N)N)C(=O)N[C@@H](CCCCN)C(=O)N[C@@H](CCCNC(=N)N)C(=O)N[C@@H](CCC(N)=O)C(=O)N[C@@H](CCC(N)=O)C(N)=O)[C@@H](C)CC)[C@@H](C)CC)[C@@H](C)O)[C@@H](C)O)C(C)C)C(C)C [MELITTIN] | 2 (≈ 5.69 µg/mL) | 2 (≈ 5.69 µg/mL) | 0.5 (≈ 1.42 µg/mL) | 1 (≈ 2.85 µg/mL) | 2 (≈ 5.69 µg/mL) | 2 (≈ 5.69 µg/mL) | 2 (≈ 5.69 µg/mL) | 4 (≈ 11.4 µg/mL) | 4 (≈ 11.4 µg/mL) | 1 (≈ 2.85 µg/mL) | 2 (≈ 5.69 µg/mL) | 2 (≈ 5.69 µg/mL) | 2 | 2.09 | 2 (≈ 5.69 µg/mL) | 0.96 | 2 | 2 | 64 | 32 | MBC (Escherichia coli [19]): > 64 µM; MBC (Escherichia coli [20]): 4 µM; MBC (Escherichia coli [21]): 2 µM; MBC (Escherichia coli [22]): 2 µM; MBC (Escherichia coli [23]): > 64 µM; MBC (Escherichia coli [24]): > 64 µM; MBC (Escherichia coli [25]): > 64 µM; MBC (Escherichia coli [26]): 2 µM; MBC (Escherichia coli [27]): 2 µM (≈ 5.69 µg/mL); MBC (Escherichia coli [28]): 1 µM (≈ 2.85 µg/mL); MBC (Escherichia coli [29]): 2 µM (≈ 5.69 µg/mL); MBC (Pseudomonas aeruginosa [30]): 4 µM (≈ 11.4 µg/mL); MBC (Salmonella typhimurium [31]): 2 µM (≈ 5.69 µg/mL); MBC [32]: 4 µM (≈ 11.4 µg/mL); MBC (Acinetobacter baumannii): 1 µM (≈ 2.85 µg/mL); MBC (Klebsiella pneumoniae [33]): 2 µM (≈ 5.69 µg/mL)
2 | H-IKPIIKPIIKPIIKPIIKPIIKPIIKPI-NH2 | 8 | 4 | 16 | 2 | 2 | > 64 | > 64 | > 64 | > 64 | 64 | 64 | 16 | > 128 | 2750 | 16 | 75.44 | 32 | 32 | > 128 | > 128 | MBC (Escherichia coli [19]): 16 µM; MBC (Escherichia coli [20]): 16 µM; MBC (Escherichia coli [21]): 16 µM; MBC (Escherichia coli [22]): 16 µM; MBC (Escherichia coli [23]): 16 µM; MBC (Escherichia coli [24]): 16 µM; MBC (Escherichia coli [25]): 16 µM; MBC (Escherichia coli [26]): 16 µM; Activity (Escherichia coli [34]): inactive; MBC (Escherichia coli [27]): 4 µM; MBC (Escherichia coli [28]): 2 µM; MBC (Escherichia coli [29]): 4 µM; MBC (Pseudomonas aeruginosa [30]): > 64 µM; MBC (Salmonella typhimurium [31]): > 64 µM; MBC [32]: > 64 µM; MBC (Acinetobacter baumannii): 2 µM; MBC (Klebsiella pneumoniae [33]): 64 µM; Stability [35]: Unstable
